Measured values: article PMC10208956, “Microbial peptides activate tumour-infiltrating lymphocytes in glioblastoma” (Nature, 2023)

Key:
Format in all cases: cell-based, human
TCC88 = assay: Cytokine and chemokine secretion of TCC88 after peptide stimulation; details: TCC88 supernatant after peptide stimulation; no peptide control subtracted; Fig. 3e
Text: Fig. 3 Bacteria-derived and microbiota-derived peptides can stimulate TCC88 as well as the tumour antigen. a, Peptides with the highest predicted stimulatory scores were identified by searching various databases (see Methods). Numbers of unique 10-mer peptides within each database, synthesized peptides, TCC88 stimulatory peptides and the corresponding percentage of stimulatory peptides within each database are shown. […] Cytokine and chemokine secretion of TCC88 was examined and compared upon stimulation with these three different antigens. A specific amount of each cytokine and chemokine (pg ml^−1) was calculated by subtracting the cytokines in the negative control cultures (no peptide control). f, Cytotoxicity of TCC88 against the autologous tumour cell line after stimulation with 2 µM of SIN3A* and HGM3 (data represent the mean percentage of two replicate wells). E:T, effector to target. g, TCC88 was tested with HGM3 (10 µM) or SIN3A* (10 µM) peptides or both together (each 10 µM), and ^3H-thymidine incorporation was measured after 3 days (data represent the mean SI value of three replicate wells ± s.e.m.). Also see Extended Data Figs. 3 and 4. Source data
(§1) Supernatants from each experiment were harvested a day before adding thymidine and frozen at −20 °C. Cytokines were measured using ELISA for human IFNγ ELISA MAX (BioLegend), human GM-CSF DuoSet ELISA (R&D Systems) and bead-based assays. A Synergy H1 hybrid multi-mode reader (Agilent) was used to measure the absorbance. The LEGENDplex Multi-analyte Flow Assay kit (BioLegend) is a 13-plex human TH cytokine panel, which includes IFNγ, TNF, IL-2, IL-4, IL-5, IL-6, IL-9, IL-10, IL-13, IL-17A, IL-17F, IL-21 and IL-22. […] LSR Fortessa Flow Cytometer (BD Biosciences) was used to measure cytokines, and data were analysed using FlowJo (Tree Star). The Human XL Cytokine Luminex Performance Assay Fixed Panel (R&D Systems) contains 45 analytes covering a broad range of various chemokines and cytokines.

[1] = system: bacteria/microbiota-reactive CFSEdim CD4+ TILs; assay: Proliferation of expanded CFSEdim CD4+ TILs that responded to the bacteria/microbiota peptide pool; details: 5 days; 4 replicate wells; Fig. 4d
[2] = system: bulk TILs (patient 1635WI); assay: Cytokine and chemokine secretion of bulk TILs stimulated with IPdBPs; set-up: key to CD40 Ligand / Flt-3 Ligand / GM-CSF / Granzyme B / IFN-α / IFN-γ / IL-1rα / IL-1α / IL-1β / IL-2 / IL-3 / IL-4 / IL-5 / IL-6 / IL-7 / IL-10 / IL-12p70 / IL-13 / IL-15 / IL-17A / IL-33 / TNF-α / RANTES: pg/mL, negative-control amount subtracted; CXCL2/GROβ / CXCL10/IP-10 / CCL2/MCP-1 / CCL3/MIP-1α / CCL4/MIP-1β: unit not given beside the values; details: secretion by bulk TILs after peptide stimulation; sheet 1e
Text: Fig. 1 Elution of HLA class II-presented bacterial peptides from 19 glioblastomas and the stimulatory effect of IPdBPs on bulk TILs. a, Schematic of the immunopeptidome analyses of glioblastoma tissue, from which eluted peptides were annotated using the UniProt bacteria database (1). TILs or peripheral memory T cells were stimulated with IPdBPs (2 and 3). LC–MS, liquid chromatography–mass spectrometry; PBMC, peripheral blood mononuclear cell. The images in panel a were created using BioRender (https://biorender.com). b, Number of unique IPdBPs in patients with glioblastoma (n = 19) (data from patient 1635WI contains both primary and recurrent tumours together), with 344 unique IPdBPs identified (left). These peptides originated from 255 and 199 unique proteins and bacteria, respectively (3 technical replicates). […] As a control, peptidome data were also annotated using human protein database to identify eluted self-peptides. As shown, most of HLA class II-bound peptides are self-(human) peptides. IPdBPs of primary (bottom left, n = 18) and recurrent (bottom right, n = 23) tumours were separately annotated to their source bacteria at the phylum level. d, Bulk TILs (patient 1635WI) were stimulated with IPdBPs (See Supplementary Table 8), each in five replicate wells, and proliferation was measured after 5 days via ^3H-thymidine incorporation. […] The data are expressed as the mean value of all wells ± s.e.m. SIN3A* peptide was used as a positive control as TILs recognize this tumour antigen. T cells with APCs without any stimuli were used as a negative control. e, Heatmap of cytokine and chemokine secretion of TILs stimulated with three IPdBPs, which weakly stimulated proliferation. The secretion of each cytokine and chemokine was calculated by subtracting the corresponding cytokine and chemokine amount (pg ml^−1) of the negative control. TILs with APCs without any stimuli were used as a negative control. Also see Extended Data Fig. 1. Source data
as §1

Ac-QPVEFNHAIHYVN-NH2 [SIN3A*]
CCL20/MIP-3α (TCC88): 15.37 pg/mL | CD40 Ligand (TCC88): 2926.92 pg/mL | CXCL1/GROα (TCC88): 71.75 pg/mL | CXCL2/GROβ (TCC88): 125.05 pg/mL | CXCL8/IL-8 (TCC88): 0 pg/mL | CXCL10/IP-10 (TCC88): 22.77 pg/mL | Flt-3 Ligand (TCC88): 138.99 pg/mL | Fractalkine (TCC88): 649.3 pg/mL | GM-CSF (TCC88): 12306.4 pg/mL | Granzyme B (TCC88): 3726.29 pg/mL | IFN-α (TCC88): 6.21 pg/mL | IFN-γ (TCC88): 2158.92 pg/mL | IL-1rα (TCC88): 2936.96 pg/mL | IL-1α (TCC88): 18.71 pg/mL | IL-1β (TCC88): 19.49 pg/mL | IL-2 (TCC88): 1202.18 pg/mL | IL-3 (TCC88): 486.43 pg/mL | IL-4 (TCC88): 244.81 pg/mL | IL-5 (TCC88): 13.04 pg/mL | IL-6 (TCC88): 272.8 pg/mL | IL-7 (TCC88): 2.58 pg/mL | IL-10 (TCC88): 469.8 pg/mL | IL-12p70 (TCC88): 34.04 pg/mL | IL-13 (TCC88): 1544.08 pg/mL | IL-15 (TCC88): 2.67 pg/mL | IL-17A (TCC88): 3.91 pg/mL | IL-17E/IL-25 (TCC88): 6.04 pg/mL | IL-33 (TCC88): 26.68 pg/mL | TNF-α (TCC88): 10260.2 pg/mL | recognition by CD4+ TILs pre-stimulated with the bacteria/microbiota peptide pool, by proliferation and/or GM-CSF secretion (in words) [1]: recognized | CCL2/MCP-1 [2]: 2816.44 | CCL3/MIP-1α [2]: 29.38 | CCL4/MIP-1β [2]: 288.41 | CCL11/Eotaxin [2]: 0 | CCL19/MIP-3β [2]: 3.84 | CCL20/MIP-3α [2]: 5.69 | CD40 Ligand [2]: 1225.7 | CXCL1/GROα [2]: 401.05 | CXCL2/GROβ [2]: 208.21 | CXCL8/IL-8 [2]: 3621.56 | CXCL10/IP-10 [2]: 192.55 | Flt-3 Ligand [2]: 87.97 | GM-CSF [2]: 322.89 | Granzyme B [2]: 136.59 | IFN-α [2]: 1.52 | IFN-γ [2]: 41.34 | IL-1rα [2]: 1593.54 | IL-1α [2]: 6.01 | IL-1β [2]: 5.99 | IL-2 [2]: 5.92 | IL-3 [2]: 55.24 | IL-4 [2]: 3.08 | IL-5 [2]: 16.46 | IL-6 [2]: 23.1 | IL-7 [2]: 0.95 | IL-10 [2]: 62.69 | IL-12p70 [2]: 0 | IL-13 [2]: 67.23 | IL-15 [2]: 2.11 | IL-17A [2]: 2.07 | IL-17E/IL-25 [2]: 0 | IL-33 [2]: 6.61 | RANTES [2]: 135 | TNF-α [2]: 366.07
